Measured values reported in PubChem BioAssay AID1963978 (Molecular Pharmacology Branch, DTP, NCI, 2024).
pIC50: −log10 of the molar value.

Test system: 616215-338-R-J1-PDC spheroids with HUVEC/MSC, viability
Assay: Anticancer human tumor 616215-338-R-J1-PDC patient-derived colon adenocarcinoma cell line growth inhibition [PI3K]
Settings: for pIC50: curve of first compound; for viability, T/C: stronger effect = lower value
Summary of the method: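 Complex 3D spheroids (cancer cells + endothelial HUVEC + mesenchymal stem cells); drug pairs of targeted agent x inavolisib/alpelisib/duvelisib/copanlisib; half-log series from ~Cmax, max 10 microM if Cmax unknown; endpoint viability.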

[1] = second compound 0.0316 µM, first compound 0.0316 µM
[2] = second compound 0.0316 µM, first compound 0.1 µM
[3] = second compound 0.0316 µM, first compound 0.316 µM
[4] = second compound 0.0316 µM, first compound 1 µM
[5] = second compound 0.0316 µM, first compound 3.16 µM
[6] = second compound 0.0316 µM, first compound 10 µM
[7] = second compound 0.1 µM, first compound 0.0316 µM
[8] = second compound 0.1 µM, first compound 0.1 µM
[9] = second compound 0.1 µM, first compound 0.316 µM
[10] = second compound 0.1 µM, first compound 1 µM
[11] = second compound 0.1 µM, first compound 3.16 µM
[12] = second compound 0.1 µM, first compound 10 µM
[13] = second compound 0.316 µM, first compound 0.0316 µM
[14] = second compound 0.316 µM, first compound 0.1 µM
[15] = second compound 0.316 µM, first compound 0.316 µM
[16] = second compound 0.316 µM, first compound 1 µM
[17] = second compound 0.316 µM, first compound 3.16 µM
[18] = second compound 0.316 µM, first compound 10 µM
[19] = second compound 1 µM, first compound 0.0316 µM
[20] = second compound 1 µM, first compound 0.1 µM
[21] = second compound 1 µM, first compound 0.316 µM
[22] = second compound 1 µM, first compound 1 µM
[23] = second compound 1 µM, first compound 3.16 µM
[24] = second compound 1 µM, first compound 10 µM
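Further: spheroids exposed to agents for seven days before the viability read.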

CNC(=O)c1ccc(N2C(=S)N(c3ccc(C#N)c(C(F)(F)F)c3)C(=O)C2(C)C)cc1F + Cc1nc(NC(=O)N2CCCC2C(N)=O)sc1-c1ccnc(C(C)(C)C(F)(F)F)c1 showed a pIC50 (second compound 0.0316 µM) of less than 5.00, a pIC50 (second compound 0.1 µM) of less than 5.00 and a pIC50 (second compound 0.316 µM) of less than 5.00. For the same compound, the pIC50 (second compound 1 µM) was less than 5.00, the pIC50 (second compound 3.16 µM) was less than 5.00 and the pIC50 (second compound 10 µM) was less than 5.00. It also gave a viability, T/C [1] of 97.6%, a viability, T/C [2] of 95.1% and a viability, T/C [3] of 102%. For the same compound, the viability, T/C [4] was 96.5%, the viability, T/C [5] was 95.6% and the viability, T/C [6] was 93%. It also gave a viability, T/C [7] of 116%, a viability, T/C [8] of 86% and a viability, T/C [9] of 94.7%. The viability, T/C [10] was 99%, the viability, T/C [11] was 91.9% and the viability, T/C [12] was 103%. The viability, T/C [13] was 94%, the viability, T/C [14] was 99.9% and the viability, T/C [15] was 109%. It also gave a viability, T/C [16] of 97.9%, a viability, T/C [17] of 94.4% and a viability, T/C [18] of 93.1%. For the same compound, the viability, T/C [19] was 101%, the viability, T/C [20] was 96.4% and the viability, T/C [21] was 104%. For the same compound, the viability, T/C [22] was 97.4%, the viability, T/C [23] was 101% and the viability, T/C [24] was 104%. For the same compound, the viability, T/C (second compound 3.16 µM, first compound 0.0316 µM) was 101%, the viability, T/C (second compound 3.16 µM, first compound 0.1 µM) was 93.8% and the viability, T/C (second compound 3.16 µM, first compound 0.316 µM) was 91.3%. The viability, T/C (second compound 3.16 µM, first compound 1 µM) was 90%, the viability, T/C (second compound 3.16 µM, first compound 3.16 µM) was 93.5% and the viability, T/C (second compound 3.16 µM, first compound 10 µM) was 90.6%. For the same compound, the viability, T/C (second compound 10 µM, first compound 0.0316 µM) was 90.6%, the viability, T/C (second compound 10 µM, first compound 0.1 µM) was 93.3% and the viability, T/C (second compound 10 µM, first compound 0.316 µM) was 98.4%. The viability, T/C (second compound 10 µM, first compound 1 µM) was 98.9%, the viability, T/C (second compound 10 µM, first compound 3.16 µM) was 99.4% and the viability, T/C (second compound 10 µM, first compound 10 µM) was 54.6%.
CC(C)NCC(C(=O)N1CCN(c2ncnc3c2C(C)CC3O)CC1)c1ccc(Cl)cc1 (centres undefined) + CC(Nc1ccc2c(c1)OCCn1cc(N3C(=O)OCC3C(F)F)nc1-2)C(N)=O was tested, and the pIC50 (second compound 0.00316 µM) was 5.19, the pIC50 (second compound 0.01 µM) was 5.23 and the pIC50 (second compound 0.0316 µM) was 5.22. The pIC50 (second compound 0.1 µM) was 5.30, the pIC50 (second compound 0.316 µM) was 5.29 and the pIC50 (second compound 1 µM) was 5.42. It also gave a viability, T/C (second compound 0.00316 µM, first compound 0.0316 µM) of 86.5%, a viability, T/C (second compound 0.00316 µM, first compound 0.1 µM) of 95.8% and a viability, T/C (second compound 0.00316 µM, first compound 0.316 µM) of 95.8%. It also gave a viability, T/C (second compound 0.00316 µM, first compound 1 µM) of 98.2%, a viability, T/C (second compound 0.00316 µM, first compound 3.16 µM) of 69.9% and a viability, T/C (second compound 0.00316 µM, first compound 10 µM) of 37.7%. The viability, T/C (second compound 0.01 µM, first compound 0.0316 µM) was 88.5%, the viability, T/C (second compound 0.01 µM, first compound 0.1 µM) was 102% and the viability, T/C (second compound 0.01 µM, first compound 0.316 µM) was 90.4%. The viability, T/C (second compound 0.01 µM, first compound 1 µM) was 110%, the viability, T/C (second compound 0.01 µM, first compound 3.16 µM) was 70% and the viability, T/C (second compound 0.01 µM, first compound 10 µM) was 32.9%. The viability, T/C [1] was 97.7%, the viability, T/C [2] was 104% and the viability, T/C [3] was 98%. For the same compound, the viability, T/C [4] was 98.1%, the viability, T/C [5] was 65.8% and the viability, T/C [6] was 37.2%. The viability, T/C [7] was 95%, the viability, T/C [8] was 94.6% and the viability, T/C [9] was 95%. It also gave a viability, T/C [10] of 93.6%, a viability, T/C [11] of 65.7% and a viability, T/C [12] of 26.1%. For the same compound, the viability, T/C [13] was 110%, the viability, T/C [14] was 99.9% and the viability, T/C [15] was 95.5%. For the same compound, the viability, T/C [16] was 103%, the viability, T/C [17] was 65.9% and the viability, T/C [18] was 28%. The viability, T/C [19] was 106%, the viability, T/C [20] was 95.5% and the viability, T/C [21] was 105%. The viability, T/C [22] was 88.9%, the viability, T/C [23] was 54% and the viability, T/C [24] was 29.3%.
